{"source": "paper PMC11076983", "about": "“Baicalin and baicalein from Scutellaria baicalensis Georgi alleviate aberrant neuronal suppression mediated by GABA from reactive astrocytes” (CNS Neuroscience & Therapeutics, 2024)", "molecular_target": "T1, monoamine oxidase B (MAO-B) (Homo sapiens, UniProt P27338)", "T1 construct": "gene MAOB; Human recombinant MAO-B (Sigma, M7441)", "T1 sequence (P27338 2-520)": "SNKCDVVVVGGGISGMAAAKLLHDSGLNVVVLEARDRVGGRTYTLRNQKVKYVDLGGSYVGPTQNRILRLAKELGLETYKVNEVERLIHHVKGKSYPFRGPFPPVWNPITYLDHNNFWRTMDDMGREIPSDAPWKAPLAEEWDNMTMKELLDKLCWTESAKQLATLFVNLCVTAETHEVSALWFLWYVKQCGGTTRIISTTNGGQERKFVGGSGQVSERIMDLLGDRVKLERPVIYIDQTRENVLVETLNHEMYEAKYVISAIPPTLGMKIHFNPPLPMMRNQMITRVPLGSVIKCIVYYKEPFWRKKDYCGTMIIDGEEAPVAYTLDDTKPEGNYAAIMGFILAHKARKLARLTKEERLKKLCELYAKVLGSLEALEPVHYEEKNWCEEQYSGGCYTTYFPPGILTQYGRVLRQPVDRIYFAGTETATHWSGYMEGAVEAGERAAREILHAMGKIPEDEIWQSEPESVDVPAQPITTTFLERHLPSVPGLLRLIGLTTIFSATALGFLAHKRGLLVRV", "assay": "in vitro MAO-B enzyme activity assay with recombinant human enzyme", "type": "biochemical", "note": "Where two headings read alike, the source gives them in different places."}
{"smiles": "COc1c(O)cc(O)c2c(=O)cc(-c3ccccc3)oc12", "note": "[wogonin]", "values": [{"measurement": "IC50", "value": 79.2, "unit": "µM"}]}
{"smiles": "O=c1cc(-c2ccccc2)oc2cc(O)c(O)c(O)c12", "note": "[baicalein]", "values": [{"measurement": "IC50", "value": 21, "unit": "µM"}]}
{"smiles": "O=C(O)[C@H]1O[C@@H](Oc2cc3oc(-c4ccccc4)cc(=O)c3c(O)c2O)[C@H](O)[C@@H](O)[C@@H]1O", "note": "[baicalin]", "values": [{"measurement": "IC50", "setting": "read-out: IC50", "value": 6.26, "unit": "µM"}]}
